Patent publication US6113907A, “Pharmaceutical grade St. John's Wort” (priority 1997, dated 2000)
Several values for one entry are separate records, joined by “and”; a condition that tells them apart may be missing. Identical values can stand only once. Counter-ions that a name gives are not always drawn. Like-named read-outs stand apart in the source and are kept apart here.

Columns and labels:
serotonin transporter [1] = molecular target: T1, serotonin transporter (Rattus norvegicus, UniProt P31652); details: cited from earlier work
T1 construct: Cerebral cortical membranes derived from male Wistar rats; from tissue; host or cells: cerebral cortical membranes of male Wistar rats

[2] = oil preparations, exposed to light; cited from earlier work
bacteria, fungi = details: hyperforin, adhyperforin: dilutions of 1:400 or 1:200; cited from earlier work
serotonin transporter [3] = molecular target: T1, serotonin transporter; experiment: serotonin transporter assay, [125I]-RTI-121, rat cerebral cortical membranes; type: binding
GABAA receptor = details: read-out: Ki(nM) GABAA reference compounds; cited from earlier work
monoamine oxidase B [4] = details: reference compounds; read-out: inhibition of monoamine oxidase B IC50; cited from earlier work
[5] = molecular target: glutamate receptor, NMDA agonist site; details: cited from earlier work
Monoamine Oxidase A = details: read-out: Inhibition of Monoamine Oxidase A Activity IC50; cited from earlier work
monoamine oxidase B [6] = experiment: MAO-B enzyme activity, rat liver mitochondrial fraction, [3H]dopamine; type: biochemical; details: read-out: MAOB (concentration)
Protocol: MAO-B enzyme activity is assayed in a mitochondrial fraction isolated from rat liver by differential centrifugation. […] Following 20 minutes incubation at 37° C., the reaction is terminated by the addition of 5% HCl. The radioactivity of [^3 H]dopamine in an extraction was determined.

adenosine receptor = adenosine receptor non-selective (ADNS), [3H] NECA, bovine striatal membranes; type: binding; details: for ADNS: 10^-4, 60 min, 100 µM
Protocol: To determine the inhibitory activity of the substances for the dopamine receptor (dp) the following assay was preformed. A partial receptor preparation was prepared from bovine striatal membranes using [^3 H] spiperone as the ligand at a final concentration of 0.3 nM. To determine non-specific binding cold spiperone was tested at 1 μM. The reactions were carried out in 50 mM Tris-HCl (pH 7.7) containing 120 mM NaCl, 5 mM KCl, 2 mM CaCl2 and 1 mM MgCl2 at 37° C. for 60 minutes. […] The inhibitory properties of the substances for binding of ligand to the adenosine receptor (ADNS) was measured using a partially purified receptor preparation made from bovine striatal membranes. The radioligand used was [^3 H] 5'-N-ethylcarboxyamidoadenosine (NECA) at a final ligand concentration of 4 nM. Non-specific binding was determined in the presence of 10 μM NECA. The reactions were carried out in 50 mM Tris-HCL (pH 7.7) for 60 minutes at 25° C. […] To measure the inhibitory activity of the substances for the opiate receptor (Opiate) receptor was partially purified from rat forebrains. [^3 H] naloxone at 1 nM as the ligand used. Non-specific binding was determined in the presence of 1 μM of naloxone. The assays were carried out in 50 mM Tris-HCl (pH 7.4) at 25° C. for 90 minutes. […] The neuronal nicotinic receptor (Nicotinic Neuronal) was assayed using receptors partially purified from rat cortical membranes. The radioligand used was [^3 H] N-methylcarbamylcholine iodide at a final ligand concentration of 5 nM. Non-specific binding was determined in the presence of 1 μM nicotine sulfate. The assay reactions were carried out in 50 mM Tris-HCl (pH 7.4) containing 120 mM NaCl, 5 mM KCl, 2 mM CaCl2, 1 mM MgCl2, and 3 μM atropine sulfate at 4° C. for 60 minutes. […] To determine how the substances inhibit the corticotropin releasing factor (CRF) partially purified receptor from rat cortical membranes was used as the receptor preparation. […] Tyr-° CRF at a final ligand concentration of 0.1 nM. Non-specific binding was determined in the presence of 1 μM Tyr-° CRF. The reactions were carried out in 50 mM HEPES containing 10 mM MgCl2, 2 mM EGTA, 0.12 TIU/ml aprotinin and 0.3% BSA at 25° C. for 120 minutes. The reaction is terminated by centrifugation in a Sorvall centrifuge for 15 minutes at 4° C.

[7] = system: muscarinic receptor for the central nervous system; experiment: muscarinic receptor for the central nervous system (M1 Central), [3H] QNB, rat cortical membranes; type: binding; details: 10^-4; 100 µM
Protocol: Fourteen additional bioassays were preformed on either extracts, fractions or reference compounds for this botanical. To measure inhibition of [^3 H] PK11195 to the benzodiazepine receptor (BDZ) a partially purified receptor preparation was made from rat kidney membranes. The final radioactive ligand concentration was 1 nM and non-specific binding was measured using 200 nM cold PK11195. The substances, receptor and ligand were reacted in 50 mM Tris-HCL (pH 7.7) at 0-4° C. for 60 minutes. The reaction was terminated by rapid filtration of the samples through glass fiber filters. […] The inhibition of [^3 H] pinrenzepine to the muscarinic M1 receptor (M1) by the substances was measured using a partially purified receptor from bovine striatal membranes. The final hot ligand concentration was 1 nM and non-specific binding was determined in the presence of 100 nM atropine. […] The reactions were terminated by rapid vacuum filtration of the reaction mixture through glass fiber filters. […] To assay for biological activity for the muscarinic receptor for the central nervous system, receptor was partially purified from rat cortical membranes. […] Non-specific binding was determined in the presence of 100 nM atropine. […] Non-specific binding was determined using 1 mM NMDA. […] Non-specific binding was determined using 100 μM AMPA.

MAOA = molecular target: T2, MAOA (Rattus norvegicus, UniProt P21396); experiment: MAOA enzymatic activity, rat liver mitochondrial membranes, [14C] serotonin; type: biochemical; parameters: using rat liver mitochondrial membranes as a partially purified enzyme source; from tissue; host or cells: rat liver mitochondrial membranes
T2 sequence (P21396 1-526): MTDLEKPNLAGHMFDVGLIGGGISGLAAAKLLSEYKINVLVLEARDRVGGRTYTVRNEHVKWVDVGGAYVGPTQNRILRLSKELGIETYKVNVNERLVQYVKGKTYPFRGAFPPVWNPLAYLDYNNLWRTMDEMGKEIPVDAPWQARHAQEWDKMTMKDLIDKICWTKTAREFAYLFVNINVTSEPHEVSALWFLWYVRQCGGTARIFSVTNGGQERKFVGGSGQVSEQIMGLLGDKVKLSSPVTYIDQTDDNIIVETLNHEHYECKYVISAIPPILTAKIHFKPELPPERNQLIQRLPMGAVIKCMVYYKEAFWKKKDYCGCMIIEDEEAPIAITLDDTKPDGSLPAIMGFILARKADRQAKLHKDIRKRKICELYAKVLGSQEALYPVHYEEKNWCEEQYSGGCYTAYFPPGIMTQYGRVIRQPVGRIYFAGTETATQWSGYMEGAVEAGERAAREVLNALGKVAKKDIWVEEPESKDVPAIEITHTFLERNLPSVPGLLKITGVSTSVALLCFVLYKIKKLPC
Protocol: The inhibition of MAOA enzymatic activity (MAOA) was determined using rat liver mitochondrial membranes as a partially purified enzyme source. […] The reaction involves the conversion of the substrate to [^14 C] 5-hydroxyl indoleacetaldehyde+NH4^+. In brief, the enzyme is preincubated with the substances and the subtype specific blocker deprenyl (at 300 nM) for 60 minutes at 37° C. in 100 mM KPO4 (pH 7.2). Substrate is added and incubated for an additional 10 minutes. The reaction is terminated by the addition of 0.5 ml of 2M citric acid. […] Nitric oxide synthetase activity was measured using a binding assay (NOS). The receptors were made by partial purification of material from rat brain membranes. The radioligand used was [^3 H] L-N^G -Nitro-Arginine (NOARG) at a final concentration of 5 nM. Non-specific binding was determined using 100 μM of NOARG. The assay reactions were carried out in 50 mM Tris-HCl (pH 7.4) for 60 minutes at 25° C.

β-adrenergic receptors = details: rat frontal cortex, subchronic (250 mg/kg for 2 weeks; imipramine similar doses); cited from earlier work
stability = type: physicochemical; details: our data
Source text: Some botanicals, such as St. John's Wort, are both temperature and light sensitive. For this type of botanical the material should be dry packed with a refrigerant or shipped under refrigeration and protected from light and air. […] Stability (in absence of air) was increased to six months in a preparation extracted with ethanol.
Phloroglucinola include hyperforin (prenylated derivative of phloroglucinol), adhyperforin (similar to the bitter principle of hops, adhumulone).

herpes simplex = details: cited from earlier work
[8] = system: human immunodeficiency virus type 1 (HIV-1); details: cited from earlier work
murine cytomegalovirus = details: cited from earlier work
Sindbis virus = details: cited from earlier work
[9] = system: equine infectious anemia virus; details: cited from earlier work
protein kinase C = details: cited from earlier work

T1 sequence (P31652 whole entry): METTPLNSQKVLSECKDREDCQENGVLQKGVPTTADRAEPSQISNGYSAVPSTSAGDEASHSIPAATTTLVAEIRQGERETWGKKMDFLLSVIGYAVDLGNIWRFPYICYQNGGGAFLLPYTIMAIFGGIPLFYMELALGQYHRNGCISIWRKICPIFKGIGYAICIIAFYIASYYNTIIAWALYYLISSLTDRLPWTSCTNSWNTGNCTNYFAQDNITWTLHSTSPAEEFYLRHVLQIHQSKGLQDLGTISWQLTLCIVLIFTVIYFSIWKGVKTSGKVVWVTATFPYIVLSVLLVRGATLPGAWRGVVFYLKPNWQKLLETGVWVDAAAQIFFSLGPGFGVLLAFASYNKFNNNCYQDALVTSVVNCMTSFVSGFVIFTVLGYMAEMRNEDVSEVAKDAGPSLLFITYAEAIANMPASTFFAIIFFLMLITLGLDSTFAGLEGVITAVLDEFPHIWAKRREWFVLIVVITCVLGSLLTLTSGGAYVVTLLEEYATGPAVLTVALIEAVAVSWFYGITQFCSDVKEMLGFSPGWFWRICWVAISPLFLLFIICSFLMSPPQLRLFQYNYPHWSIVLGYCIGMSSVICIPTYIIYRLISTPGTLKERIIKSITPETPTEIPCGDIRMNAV

In the case of O=[N+]([O-])c1ccc2nc(N3CCNCC3)ccc2c1 [6-NO-Quipazine], the IC50 (serotonin transporter [1]; Reference Data) is listed as 3400 nM and the nH (serotonin transporter [1]; Reference Data) is listed as 0.7400.
In the case of CCC(C)C(=O)[C@]12C(=O)[C@](CC=C(C)C)(C[C@H](CC=C(C)C)[C@@]1(C)CCC=C(C)C)C(=O)C(CC=C(C)C)=C2O (stereo partly shown) [Adhyperforin, adhyperforin], the degradation time [2] is listed as 14 days.
For CC(C)=CCCC1(C)C(CC=C(C)C)CC2(CC=C(C)C)C(=O)C(CC=C(C)C)=C(O)C1(C(=O)C(C)C)C2=O (stereo not shown) [Hyperforin, hyperforin], the “antibacterial / antifungal / antibiotic effect” value (bacteria, fungi) is listed as “antibiotic effect greater than that of sulfonilamide” and the degradation time [2] is listed as 14 days.
For O=c1c(O[C@@H]2O[C@H](CO)[C@H](O)[C@H](O)[C@H]2O)c(-c2ccc(O)c(O)c2)oc2cc(O)cc(O)c12 [Hyperoside, hyperoside], the “5-HT Reuptake (Table 8, words)” value (serotonin transporter [3]) was “Negative”.
For O=C(O)C1=CCNCC1 [Isoguvacine], the Ki (GABAA receptor) is listed as 9.5 nM.
In the case of O=c1c2cc(O)c(O)cc2oc2cc(O)c([C@@H]3O[C@H](CO)[C@@H](O)[C@H](O)[C@H]3O)c(O)c12 [Magniferin, mangiferin], the “5-HT Reuptake (Table 8, words)” value (serotonin transporter [3]) is reported as “Negative”.
For NCc1cc(=O)[nH]o1 [Muscimol], the Ki (GABAA receptor) is listed as 4.4 nM.
In the case of NCCNC(=O)c1cccc(I)c1 [N-(2-aminoethyl)-3-iodobenzamide hydrochloride], the IC50 (monoamine oxidase B [4]) is given as 1700 nM.
For CN[C@H](CC(=O)O)C(=O)O [NMDA, N-methyl-D-aspartic acid], the Ki ([5]; read-out: Ki(nM) NMDA reference compounds) is listed as 9300 nM.
For Cc1ccc2c(c1)c1c3n2CCNC3CCC1 (stereo not shown) [Pirlindole Mesylate], the IC50 (Monoamine Oxidase A) is listed as 16 nM.
In the case of O=c1c(O)c(-c2ccc(O)c(O)c2)oc2cc(O)cc(O)c12 [Quercetin, quercetin], the IC50 (monoamine oxidase B [6]) is reported as 2400 nM, the “5-HT Reuptake (Table 8, words)” value (serotonin transporter [3]) is reported as “Negative” and the ADNS (adenosine receptor) is reported as 45% and 27%. The “M1 Central” value [7] was 27%, the “MAOA (Table 8, words)” value (MAOA) was “verified the MAOA activity” and the IC50 (MAOA; read-out: MAOA (concentration)) was 8200 nM.
For C[C@@H]1O[C@@H](Oc2c(-c3ccc(O)c(O)c3)oc3cc(O)cc(O)c3c2=O)[C@H](O)[C@H](O)[C@H]1O [Quercitrin, quercitrin], the “5-HT Reuptake (Table 8, words)” value (serotonin transporter [3]) was “Negative”, the inhibition at 100 µM (serotonin transporter [3]; 10^-4, read-out: Sero) was 39% and the inhibition at 100 µM (serotonin transporter [3]; 10^-4 M, read-out: Sero % inhibition (PharmaPrint range)) was 40 ± 20%. The ADNS (adenosine receptor) was 45% and the “AD,NS % inhibition (PharmaPrint range)” value (adenosine receptor; 10^-4 M) was 45 ± 20%.
For c1ccc2nc(N3CCNCC3)ccc2c1 [Quipazine maleate], the nH (serotonin transporter [1]; Reference Data) is given as 0.8550.
With C[C@@H]1O[C@@H](OC[C@H]2O[C@@H](Oc3c(-c4ccc(O)c(O)c4)oc4cc(O)cc(O)c4c3=O)[C@H](O)[C@@H](O)[C@@H]2O)[C@H](O)[C@H](O)[C@H]1O [Rutin, rutin] the “5-HT Reuptake (Table 8, words)” value (serotonin transporter [3]) was “Negativee”.
For O=c1[nH]oc2c1CCNC2 [THIP, 4,5,6,7Tetrahydroisoxazolo[5,4c]pyridin3(2H)one], the Ki (GABAA receptor) is given as 25.1 nM.
In the case of c1cc2c(cc1C1CCCCC1)c1c3n2CCNC3CCC1 (stereo not shown) [Tetrindole Mesylate], the IC50 (Monoamine Oxidase A) is listed as 46 nM.
For CCCC(=CC(N)C(=O)O)CP(=O)(O)O (stereo not shown) [[^3 H]-CGP 39653], the Kd ([5]; radioligand, read-out: KD (binding affinity)) is listed as 7 nM.
For CC(C)OC(=O)[C@H]1[C@@H](c2ccc([125I])cc2)C[C@@H]2CC[C@H]1N2C [[^125 I]-RTI-121], the Kd (serotonin transporter [1]; radioligand) is given as 1.1 nM.
For CN(C)CCCN1c2ccccc2CCc2ccccc21 [imipramine], the “down-regulation of β-adrenergic receptors” value (β-adrenergic receptors) is listed as 25%.
For Cc1cc(O)c2c(=O)c3c(O)cc(O)c4c5c(O)cc(O)c6c(=O)c7c(O)cc(CO)c8c1c2c(c34)c(c65)c78 [pseudohypericin], the stability in solution (stability) is listed as “unstable in solution”, the “inhibition of herpes simplex” value (herpes simplex) is listed as “inhibit” and the “inhibition of HIV-1” value [8] is listed as “inhibit”. The “activity against murine cytomegalovirus” value (murine cytomegalovirus) was “Activity has also been reported”, the “activity against Sindbis virus” value (Sindbis virus) was “Activity has also been reported” and the “activity against equine infectious anemia virus” value [9] was “Activity has also been reported”. The “protein kinase C IC50” value (protein kinase C) was 15 µg/mL.
